The source of these data is patent US9370515B2, “Mixed lineage kinase inhibitors and method of treatments” (CALIFIA BIO, INC., priority 2013, dated 2016).

Broadly, the IC50 is the concentration that gives 50% inhibition.

Each structure is given as a SMILES string. “Also recorded” adds a separate entry of the source. Read-outs that look alike come from different tables or passages of the source.

The conditions of data set [1]: mice, Goodfellow et al 2013; cited from earlier work.
The test system of data set [2] is E18 primary hippocampal neurons. Description: Neuroprotection from HIV-1 Tat: hippocampal neurons in microfluidic chambers exposed to Tat-treated BV-2 microglia. The data set is classed as cell-based. The note with it: BV-2 microglia treated with 1 μg/ml HIV-1 Tat; for Axonogenesis in the presence of Tat-activated microglia: compound 100 nM, FIG. 1 arrows. The procedure: FIG. 2 is a graph illustrating the quantification of axon elimination in the presence of HIV tat and certain inhibitors including compounds of the present disclosure. FIG. 3 is a graph illustrating the quantification of axon length in the presence of HIV tat and certain inhibitors including compounds of the present disclosure. Neuroprotection from HIV-1 Tat: E18 primary hippocampal neurons were plated in microfluidic chambers for 7 days in vitro (DIV). These chambers contain a cell body compartment contiguous with a series of 10 um wide, 3 um high, 400 um long microgrooves through which axons grow into a second compartment, fluidically isolated by a hydrostatic pressure gradient. […] Chambers that were exposed to BV-2 microglia treated with Tat alone had almost their entire axonal field destroyed (FIG. 1, brightfield image). […] FIGS. 2 and 3 show quantifications of axon elimination in the presence of HIV tat and Compounds 169, 67, 68 and 175.

The next data set addresses MLK-3 (Homo sapiens, UniProt Q16584). Description: Biochemical assay for the inhibition of kinase activity for MLK-3 (33P-ATP, HOTSPOT filter binding). The note with it: activated MLK-3 20 nM, ATP 50 μM, myelin basic protein 20 μM, 20 minutes room temperature. The method in brief:
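Activated MLK-3 (20 nM) with myelin basic protein (20 μM) in 20 mM Hepes pH 7.5, MgCl2, EGTA, Brij35, BSA, Na3VO4, DTT, 1% DMSO. Started with 33P-ATP at 50 μM ATP, 20 min at room temperature; % activity by HOTSPOT filter binding.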

The nature of data set [3]: Blood brain barrier penetration: standard murine pharmacokinetic model, plasma and brain concentrations. The format is in vivo. As to conditions: mouse; brain concentration 3 hrs after single IV injection 10 mg/kg, CL57 BL/6 mice; read-out: Cbrain 3 hrs. The source says: Compounds disclosed herein may be evaluated in pharmacokinetic assays and models to determine absorption, distribution, metabolism, and excretion parameters. The choice and tailoring of in vitro and ex vivo assays and in vivo models will vary according to the route of administration/formulation, indication under study, properties of test compounds, etc., as well as according to such factors as costs, availability of technology and resources, etc. Such parameters are well known in the fields of pharmacology and drug development. It is within the capacity of one skilled in the art to design and carry out, such work, or to outsource it to a capable third party.
Several compounds disclosed herein were evaluated in a standard murine pharmacokinetic model. […] For ease of analysis compounds were dissolved in 5% DMSO, 40% PEG400, and […] to yield a nominal concentration of 2 mg/mL for intravenous administration. Compounds were administered via a single intravenous (IV) injection in CL57 BL/6 mice at 10 mg/kg in DMSO/PEG400/Saline solution. Three mice in each group were used for blood and brain collection at each time point. Blood samples (300 μL) were collected via the retro-orbital vein predose and at 30, 60 and 180 minutes postdose. Blood samples were placed into tubes containing sodium heparin and centrifuged under refrigerated conditions at 8000 rpm for 6 minutes to separate plasma from the samples. The brain of each animal was collected after the final blood collection. The whole tissue was harvested, excised and rinsed by saline, dried by filter paper, and then placed into one tube per tissue per animal. All samples were stored at −20° C. until bioanalysis. Compound concentrations in plasma and brain homogenate were determined using a high performance liquid chromatography/mass spectrometry (HPLC/MS/MS) methods.

Data set [4] addresses diverse set of kinases (Homo sapiens, UniProt P00519, T315I). The data set can be described thus: Protein kinase selectivity: IC50 against a diverse set of kinases, compared with URMC-099. The format is biochemical. The note with it: kinase ABL1, read-out: IC50 ABL1(T31SI). The source says: (§1) Protein Kinase Selectivity: MLK-3 inhibitors previously reported in the literature are somewhat promiscuous and inhibit a large number of serine and threonine protein kinases. Compounds of the present invention that show potent inhibition on MLK-3 are very specific for MLK family kinases. […] Journal of Medicinal Chemistry, 2013.

In data set [5] the target is T1, diverse set of kinases (Homo sapiens, UniProt O14920).
T1 construct: IC50 IKKb; other: kinase IKKb
T1 sequence (O14920 1-756): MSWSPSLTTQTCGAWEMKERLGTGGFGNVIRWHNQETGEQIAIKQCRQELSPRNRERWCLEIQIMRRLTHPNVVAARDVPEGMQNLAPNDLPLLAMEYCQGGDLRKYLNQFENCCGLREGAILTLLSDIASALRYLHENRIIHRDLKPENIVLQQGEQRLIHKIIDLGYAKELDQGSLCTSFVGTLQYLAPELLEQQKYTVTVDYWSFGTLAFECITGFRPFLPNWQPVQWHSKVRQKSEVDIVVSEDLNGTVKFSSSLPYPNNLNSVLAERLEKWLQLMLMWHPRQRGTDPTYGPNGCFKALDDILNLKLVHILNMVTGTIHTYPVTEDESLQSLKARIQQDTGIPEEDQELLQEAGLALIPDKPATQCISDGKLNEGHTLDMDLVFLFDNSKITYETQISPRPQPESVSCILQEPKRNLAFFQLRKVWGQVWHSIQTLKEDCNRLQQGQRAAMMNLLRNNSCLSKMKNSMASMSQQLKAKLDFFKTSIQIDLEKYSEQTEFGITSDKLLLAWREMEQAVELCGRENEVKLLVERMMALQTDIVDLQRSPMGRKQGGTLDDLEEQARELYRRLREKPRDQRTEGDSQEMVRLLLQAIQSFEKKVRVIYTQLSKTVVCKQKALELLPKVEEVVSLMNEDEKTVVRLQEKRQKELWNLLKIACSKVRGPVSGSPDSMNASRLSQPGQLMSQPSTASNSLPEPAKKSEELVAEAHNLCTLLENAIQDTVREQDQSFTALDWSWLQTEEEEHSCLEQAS
The data set is described as above. The format is biochemical. The note with it: kinase IKKb.
Source text: as §1

Data set [6] addresses T2, diverse set of kinases (Homo sapiens, UniProt P24941).
T2 construct: IC50 CDK2; other: kinase CDK2
Described as above. The data set is classed as biochemical. As to conditions: kinase CDK2.
Source text: as §1

The target in data set [7] is T3, diverse set of kinases (Homo sapiens, UniProt P06213).
T3 construct: IC50 IR; other: kinase IR
T3 sequence (P06213 whole entry): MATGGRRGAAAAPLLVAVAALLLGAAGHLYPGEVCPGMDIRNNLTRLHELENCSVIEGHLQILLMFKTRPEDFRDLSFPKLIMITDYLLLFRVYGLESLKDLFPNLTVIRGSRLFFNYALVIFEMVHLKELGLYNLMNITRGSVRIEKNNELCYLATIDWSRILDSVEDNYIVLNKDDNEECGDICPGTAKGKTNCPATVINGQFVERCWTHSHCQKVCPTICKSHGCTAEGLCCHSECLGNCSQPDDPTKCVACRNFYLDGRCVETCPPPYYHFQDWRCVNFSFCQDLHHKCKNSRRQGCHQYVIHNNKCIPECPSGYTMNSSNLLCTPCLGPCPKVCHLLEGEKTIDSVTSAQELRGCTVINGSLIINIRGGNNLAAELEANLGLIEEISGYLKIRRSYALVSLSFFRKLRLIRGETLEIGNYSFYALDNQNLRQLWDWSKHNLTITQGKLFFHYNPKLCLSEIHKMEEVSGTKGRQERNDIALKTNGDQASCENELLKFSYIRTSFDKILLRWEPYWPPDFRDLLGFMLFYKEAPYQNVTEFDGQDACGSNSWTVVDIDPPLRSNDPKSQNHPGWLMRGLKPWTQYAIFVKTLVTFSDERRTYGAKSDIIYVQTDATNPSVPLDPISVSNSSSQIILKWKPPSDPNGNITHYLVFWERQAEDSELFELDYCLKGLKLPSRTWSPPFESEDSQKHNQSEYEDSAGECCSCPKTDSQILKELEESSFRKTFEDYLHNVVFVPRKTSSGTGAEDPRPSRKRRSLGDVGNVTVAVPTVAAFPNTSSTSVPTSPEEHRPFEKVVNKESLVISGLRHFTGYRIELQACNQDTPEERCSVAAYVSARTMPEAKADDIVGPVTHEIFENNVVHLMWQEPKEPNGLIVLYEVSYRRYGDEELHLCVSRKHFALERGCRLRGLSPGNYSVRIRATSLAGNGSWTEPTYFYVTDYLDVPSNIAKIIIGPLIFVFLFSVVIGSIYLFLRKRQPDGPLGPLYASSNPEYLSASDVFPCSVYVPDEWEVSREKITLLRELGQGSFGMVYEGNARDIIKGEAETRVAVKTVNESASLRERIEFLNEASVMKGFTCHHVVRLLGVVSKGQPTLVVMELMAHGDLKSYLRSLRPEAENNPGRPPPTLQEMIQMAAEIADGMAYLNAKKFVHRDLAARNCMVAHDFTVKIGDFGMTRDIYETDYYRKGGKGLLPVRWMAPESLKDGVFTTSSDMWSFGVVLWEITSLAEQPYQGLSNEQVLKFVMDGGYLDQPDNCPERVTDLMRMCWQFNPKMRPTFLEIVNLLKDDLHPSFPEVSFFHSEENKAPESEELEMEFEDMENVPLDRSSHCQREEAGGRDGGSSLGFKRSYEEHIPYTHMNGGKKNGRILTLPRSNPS
The description is as above. The format is biochemical. As to conditions: kinase IR.
Source text: as §1

Data set [8] has as its target T4, diverse set of kinases (Homo sapiens, UniProt O15111).
T4 construct: IC50 IKKa; other: kinase IKKa
T4 sequence (O15111 1-745): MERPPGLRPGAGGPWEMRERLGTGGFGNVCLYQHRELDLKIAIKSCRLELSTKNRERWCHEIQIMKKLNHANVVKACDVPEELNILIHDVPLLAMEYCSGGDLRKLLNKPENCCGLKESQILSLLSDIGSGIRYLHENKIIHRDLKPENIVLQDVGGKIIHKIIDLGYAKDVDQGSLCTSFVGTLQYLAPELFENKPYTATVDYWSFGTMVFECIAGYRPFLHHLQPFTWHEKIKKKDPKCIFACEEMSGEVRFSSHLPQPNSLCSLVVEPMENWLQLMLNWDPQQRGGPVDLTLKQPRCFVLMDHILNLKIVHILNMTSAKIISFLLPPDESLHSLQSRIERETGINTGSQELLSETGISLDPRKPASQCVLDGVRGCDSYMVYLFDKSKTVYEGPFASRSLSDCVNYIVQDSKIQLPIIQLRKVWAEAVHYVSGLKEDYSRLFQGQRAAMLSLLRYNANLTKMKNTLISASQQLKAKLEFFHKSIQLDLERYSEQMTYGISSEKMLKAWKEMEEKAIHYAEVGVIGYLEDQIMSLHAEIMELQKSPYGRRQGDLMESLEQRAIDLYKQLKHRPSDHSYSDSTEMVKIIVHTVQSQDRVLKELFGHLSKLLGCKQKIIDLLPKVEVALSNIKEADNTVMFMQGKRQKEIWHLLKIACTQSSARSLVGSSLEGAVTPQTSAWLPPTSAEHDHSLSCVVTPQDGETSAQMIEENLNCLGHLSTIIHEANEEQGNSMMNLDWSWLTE
The description is as above. The format is biochemical. As to conditions: kinase IKKa.
Source text: as §1

Chain of MLK-3 (Q16584 whole entry): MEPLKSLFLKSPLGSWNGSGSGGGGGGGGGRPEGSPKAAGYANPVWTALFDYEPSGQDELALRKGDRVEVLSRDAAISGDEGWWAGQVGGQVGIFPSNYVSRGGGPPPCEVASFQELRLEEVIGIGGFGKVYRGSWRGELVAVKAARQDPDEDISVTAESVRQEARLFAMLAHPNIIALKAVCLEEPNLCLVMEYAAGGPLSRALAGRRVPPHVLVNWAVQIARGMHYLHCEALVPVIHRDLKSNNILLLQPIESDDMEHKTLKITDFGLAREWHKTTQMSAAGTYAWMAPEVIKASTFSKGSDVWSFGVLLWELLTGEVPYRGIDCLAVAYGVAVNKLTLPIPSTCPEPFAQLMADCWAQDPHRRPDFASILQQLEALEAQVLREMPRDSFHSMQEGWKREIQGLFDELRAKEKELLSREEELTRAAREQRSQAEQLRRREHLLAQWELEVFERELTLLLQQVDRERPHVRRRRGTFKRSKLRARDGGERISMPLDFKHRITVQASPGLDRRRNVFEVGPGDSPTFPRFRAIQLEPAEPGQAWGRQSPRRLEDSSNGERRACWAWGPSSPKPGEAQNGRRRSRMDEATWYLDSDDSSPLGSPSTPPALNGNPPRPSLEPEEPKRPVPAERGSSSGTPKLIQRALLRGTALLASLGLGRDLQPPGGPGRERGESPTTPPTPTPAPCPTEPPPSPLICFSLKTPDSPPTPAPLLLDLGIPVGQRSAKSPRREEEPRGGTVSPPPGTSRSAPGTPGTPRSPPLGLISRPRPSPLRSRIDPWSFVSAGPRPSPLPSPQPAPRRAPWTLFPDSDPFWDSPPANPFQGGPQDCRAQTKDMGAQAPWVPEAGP

As to `CCSCc1ccc2c(c1)c1c3c(c4c5cc(CSCC)ccc5n5c4c1n2[C@H]1C[C@](O)(C(=O)OC)[C@]5(C)O1)CNC3=O` [CEP-1347], the “CNS / blood brain barrier penetration” value in [1] is listed as “very poor blood brain barrier penetration; also recorded: poor CNS penetration”.
Turning to `COc1ccc(Nc2ccc3ncc(-c4cc5cccc(OC)c5s4)n3n2)cc1OC` [Compound 68, 3-(7-methoxybenzo[b]thiophen-2-yl)-N-(3,4-dimethoxyphenyl)imidazo[1,2-b]pyridazin-6-amine], the entries for the “Axonogenesis in the presence of Tat-activated microglia” value in data set [2] (listed as Compound 68) and in data set [2] (listed as compound 68) were “continued axonogenesis” and “promoted continued axonogenesis”, respectively. Also, the IC50 on MLK-3 was less than 100 nM; at diverse set of kinases [4] it was more than 10000 nM; on diverse set of kinases [5], more than 10000 nM; against diverse set of kinases [6] it was more than 10000 nM; on diverse set of kinases [7] it was more than 10000 nM; against diverse set of kinases [8], more than 10000 nM. In addition, in data set [3], the concentration at 3 h amounted to 1550 ng/g.
Consider `CN1CCN(Cc2ccc(-c3cnc4[nH]cc(-c5ccc6[nH]ccc6c5)c4c3)cc2)CC1` [URMC-099, reference compound], for which the “Protection of the axon field” value in data set [2] (test compounds 100 nM, 18 hours) is on record as “protected the axon field”. Moreover, the half-inhibitory concentration (IC50) on diverse set of kinases [4] (read-out: IC50 ABL1) was 3 nM; at diverse set of kinases [5], 257 nM; against diverse set of kinases [6], 1180 nM; at diverse set of kinases [7], 200 nM; against diverse set of kinases [8], 591 nM.
